Patent publication US20230145835A1, “Modulators of Alpha-4-beta-7 Integrin and MAdCAM” (48HD Biopharma Inc., priority 2021, published 2023)
Values joined by “and” are separate entries in the source; they are usually repeats but may differ in a detail not shown here. Equal values may be shown once. Numbered stars: 1 amine (or outer) side, 2 acyl side, 3 side chain; on linkers, the order of the positions; unused ones are H or OH. Bridge positions count the residues as written; N and C are the ends. Square brackets hold non-standard residues; d marks the D form. Peptide text beside a SMILES is read from it. I, II: the chains in the order shown. CO(CH2CH2O)5CH2CH2CO = O=C(CCOCCOCCOCCOCCOCCC(=O)[*:2])[*:1]; X8 = O=C(/C=N/O/C=C/CCCCOc1cc(C[*:2])cc(C[*:3])c1)[*:1]; X3 = O=C(/C=N/OCCCCCCOc1cc(C[*:2])cc(C[*:3])c1)[*:1]; X1 = O=C(C=NOCCCCCCOc1cc(C[*:2])cc(C[*:3])c1)[*:1]; X4 = N=C(N)NCCC[C@@H](CN[*:1])C(=O)[*:2]; X6 = CC[C@@H](C)C(N[*:1])C(=O)[*:2]; Nle = CCCC[C@H](N)C(=O)O

biological target: T1, rh-integrin α4β7/LPAM-1 (Homo sapiens, UniProt P13612+P26010); assay: α4β7-MadCAM Competition ELISA (Example 4); format: binding; details: Table 3 Representative compounds; inhibition of MAdCAM binding to coated α4β7; read-out: IC50
T1 sequence (P13612 34-977 limits assumed): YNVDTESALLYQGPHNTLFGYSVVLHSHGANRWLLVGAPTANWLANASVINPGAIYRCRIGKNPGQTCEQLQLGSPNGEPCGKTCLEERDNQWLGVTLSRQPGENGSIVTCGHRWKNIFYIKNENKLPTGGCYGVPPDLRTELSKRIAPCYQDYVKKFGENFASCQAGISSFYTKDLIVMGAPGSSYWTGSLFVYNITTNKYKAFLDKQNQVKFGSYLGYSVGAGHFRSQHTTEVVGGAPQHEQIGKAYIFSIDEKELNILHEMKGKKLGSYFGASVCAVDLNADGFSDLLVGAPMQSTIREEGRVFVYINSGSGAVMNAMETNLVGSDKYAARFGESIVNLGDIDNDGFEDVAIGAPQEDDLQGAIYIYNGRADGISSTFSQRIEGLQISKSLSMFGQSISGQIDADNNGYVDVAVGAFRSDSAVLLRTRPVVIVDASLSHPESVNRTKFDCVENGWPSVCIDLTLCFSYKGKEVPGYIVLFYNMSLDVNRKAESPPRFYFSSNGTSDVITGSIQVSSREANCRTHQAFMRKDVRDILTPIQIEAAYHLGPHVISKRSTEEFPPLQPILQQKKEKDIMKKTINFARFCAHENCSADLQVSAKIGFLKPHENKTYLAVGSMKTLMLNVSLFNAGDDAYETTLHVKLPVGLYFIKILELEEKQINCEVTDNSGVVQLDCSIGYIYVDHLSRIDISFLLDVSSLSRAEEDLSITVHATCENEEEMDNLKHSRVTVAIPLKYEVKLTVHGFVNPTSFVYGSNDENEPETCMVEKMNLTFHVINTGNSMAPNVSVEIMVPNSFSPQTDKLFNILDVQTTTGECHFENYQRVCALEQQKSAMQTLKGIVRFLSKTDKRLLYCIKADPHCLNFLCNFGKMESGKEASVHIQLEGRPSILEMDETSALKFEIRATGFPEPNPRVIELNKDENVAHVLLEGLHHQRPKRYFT
T1 sequence (P26010 20-723 limits assumed): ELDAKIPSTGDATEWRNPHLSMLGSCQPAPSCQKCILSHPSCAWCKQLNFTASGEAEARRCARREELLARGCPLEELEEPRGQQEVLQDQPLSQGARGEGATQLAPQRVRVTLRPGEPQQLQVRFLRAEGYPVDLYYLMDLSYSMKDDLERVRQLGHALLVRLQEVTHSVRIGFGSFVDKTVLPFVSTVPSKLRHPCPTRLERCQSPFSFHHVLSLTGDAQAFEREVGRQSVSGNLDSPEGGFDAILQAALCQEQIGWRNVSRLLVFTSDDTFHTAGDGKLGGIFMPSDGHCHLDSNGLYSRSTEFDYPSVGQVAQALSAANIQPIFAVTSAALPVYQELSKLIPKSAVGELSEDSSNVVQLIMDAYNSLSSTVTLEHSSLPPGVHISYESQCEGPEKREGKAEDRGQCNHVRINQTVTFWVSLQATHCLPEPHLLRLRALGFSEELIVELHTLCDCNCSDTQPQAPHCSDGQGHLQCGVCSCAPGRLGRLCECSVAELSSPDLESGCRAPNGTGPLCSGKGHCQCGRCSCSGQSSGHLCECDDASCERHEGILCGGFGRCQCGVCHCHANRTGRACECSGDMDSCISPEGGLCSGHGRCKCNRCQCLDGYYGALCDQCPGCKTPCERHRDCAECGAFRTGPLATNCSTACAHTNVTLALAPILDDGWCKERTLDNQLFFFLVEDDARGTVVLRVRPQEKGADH
Method: After washing with wash buffer, 200 μL assay buffer was added to each well and incubated for one hour at 28° C. After another wash with wash buffer, 100 μL of a MAdCAM and peptide mixture in assay buffer was added to each well and incubated for one hour at 28° C., followed by washing with wash buffer.

First: CSCC[C@@H]1NC(=O)[C@H](CO)NC(=O)[C@H](CC(=O)O)NC(=O)[C@@H]2CCCN2C(=O)[C@@H]2CSCc3cc(cc(c3)OCCCCCCO/N=C/C(=O)N[C@@H](CC(=O)O)C(=O)N2)CSC[C@@H](C(N)=O)NC(=O)[C@H](CO)NC(=O)[C@H](Cc2cnc[nH]2)NC(=O)[C@H](C)NC1=O [compound 65, TSL6- SDCPDSMAHSC] (DCPDSMAHSC-NH2; linker N-2-10 via X3)
Second: CC[C@@H](C)C1NC(=O)[C@H](Cc2ccc(O)cc2)NC(=O)[C@H](CCCNC(=N)N)NC(=O)[C@H](CCC(=O)O)NC(=O)[C@H](C)NC(=O)[C@H](CC(=O)O)NC(=O)[C@@H]2CCCN2C(=O)[C@@H]2CSCc3cc(cc(c3)OCCCCCCO/N=C/C(=O)N[C@@H](CO)C(=O)N2)CSC[C@@H](C(N)=O)NC1=O (stereo partly drawn) [compound 44, TSL6- SDCPDAERYIC] (SCPDAERY[X6]C-NH2; linker N-2-10 via X3)
The IC50 of the first is 9.5-fold higher: 13.8 µM for the first, 1.46 µM for the second.

Going from `CSCC[C@@H]1NC(=O)/C=N/OCCCCCCOc2cc3cc(c2)CSC[C@H](NC1=O)C(=O)N[C@@H](Cc1ccc(O)cc1)C(=O)N1CCC[C@H]1C(=O)N[C@@H](CC(=O)O)C(=O)N[C@@H]([C@@H](C)O)C(=O)N[C@@H](Cc1ccc(O)cc1)C(=O)N[C@@H](Cc1cnc[nH]1)C(=O)N[C@H](C(N)=O)CSC3` [compound 101, TSL6- SMCYPDTYHC] (MCYPDTYHC-NH2; linker N-2-9 via X3) to `CC(C)C[C@@H]1NC(=O)/C=N/OCCCCCCOc2cc3cc(c2)CSC[C@H](NC1=O)C(=O)N[C@@H](Cc1ccc(O)cc1)C(=O)N1CCC[C@H]1C(=O)N[C@@H](CC(=O)O)C(=O)N[C@@H]([C@@H](C)O)C(=O)N[C@@H](Cc1ccc(O)cc1)C(=O)N[C@@H](Cc1cnc[nH]1)C(=O)N[C@H](C(N)=O)CSC3` [compound 73, TSL6- SLCYPDTYHC] (LCYPDTYHC-NH2; linker N-2-9 via X3), the IC50 falls from 167 µM to 30.6 µM (5.5-fold).

Compared with `CSCC[C@@H]1NC(=O)[C@H](CCC(N)=O)NC(=O)[C@@H]2CSCc3cc(cc(c3)OCCCCCCO/N=C/C(=O)N[C@@H](Cc3ccccc3)C(=O)N2)CSC[C@@H](C(N)=O)NC(=O)[C@H](C)NC(=O)[C@H](CCCCN)NC(=O)[C@H](CCC(=O)O)NC(=O)[C@H](Cc2ccccc2)NC1=O` [compound 102, TSL6- SFCQMFEKAC] (FCQMFEKAC-NH2; linker N-2-9 via X3), `CC(C)C[C@@H]1NC(=O)[C@H](C)NC(=O)[C@@H]2CSCc3cc(cc(c3)OCCCCCCO/N=C/C(=O)N[C@@H](CCCCN)C(=O)N2)CSC[C@@H](C(N)=O)NC(=O)[C@H](CCC(=O)O)NC(=O)[C@H](Cc2ccc(O)cc2)NC(=O)[C@@H]2CCCN2C(=O)[C@H]([C@@H](C)O)NC(=O)[C@H](CC(=O)O)NC1=O` (stereo in doubt) [compound 53, TSL6- SKCALDTPYEC] is 66-fold lower in IC50: 178 µM for the first, 2.7 µM for the second. The second is the more potent here.

Compared with `CC[C@H](C)[C@@H]1NC(=O)[C@H](CC(=O)O)NC(=O)[C@H](CCSC)NC(=O)[C@@H]2CCCN2C(=O)[C@@H](NC(=O)[C@H](CCCNC(=N)N)NC(=O)[C@H](CO)NC(C)=O)CSSC[C@@H](C(=O)N[C@@H](CCCCNC(=O)CCOCCOCCOCCOCCOCCC(=O)NCCCC[C@H](NC(=O)[C@@H]2CSSC[C@H](NC(=O)[C@H](CCCNC(=N)N)NC(=O)[C@H](CO)NC(C)=O)C(=O)N3CCC[C@H]3C(=O)N[C@@H](CCSC)C(=O)N[C@@H](CC(=O)O)C(=O)N[C@@H]([C@@H](C)CC)C(=O)N[C@@H](C)C(=O)NCC(=O)N[C@@H](CCC(=O)O)C(=O)N2)C(N)=O)C(N)=O)NC(=O)[C@H](CCC(=O)O)NC(=O)CNC(=O)[C@H](C)NC1=O` [compound 49] (I: Ac-SRCPMDIAGECK-NH2 / II: Ac-SRCPMDIAGECK-NH2; disulfide I:3-I:11, II:3-II:11; linker I:12-II:12 via CO(CH2CH2O)5CH2CH2CO), `CCCC[C@@H]1NC(=O)[C@H](CO)NC(=O)[C@@H]2CSSC[C@@H](C(=O)N[C@@H](Cc3c[nH]c4ccccc34)C(=O)N[C@@H](CCC(N)=O)C(N)=O)NC(=O)[C@H](C(C)C)NC(=O)[C@@H](CC(=O)O)NC(=O)[C@H](CC(C)C)NC(=O)[C@H](CO)NC(=O)[C@H](CCCNC(=N)N)NC(=O)[C@H](CSCC(=O)N[C@@H](CCCNC(=N)N)C(=O)N2)NC(=O)[C@H]([C@@H](C)CC)NC(=O)[C@H](CC(=O)O)NC1=O` [compound 70, Disulfide- RCS{Nle}DICRS LDVCWQ] ({CH2CO}-RCS[Nle]DICRSL[dD]VCWQ-NH2; disulfide 2-13; thioether N-7) is 11-fold higher in IC50: 1.73 µM for the first, 19.7 µM for the second. The first is the more potent here.

Going from `N=C(N)NCCC[C@H]1CNC(=O)CNC(=O)[C@H](Cc2ccc(O)cc2)NC(=O)[C@H](Cc2c[nH]c3ccccc23)NC(=O)[C@H](Cc2c[nH]cn2)NC(=O)[C@@H]2CSCc3cc(cc(c3)OCCCCCCO/N=C/C(=O)N[C@@H](CCC(N)=O)C(=O)N2)CSC[C@@H](C(N)=O)NC(=O)[C@@H](CO)NC1=O` [compound 111, TSL6- SQCHWYGRSC] (QCHWYG[X4][dS]C-NH2; linker N-2-9 via X3) to `CCCC[C@@H]1NC(=O)[C@@H]2CCCN2C(=O)[C@@H]2CSCc3cc(cc(c3)OCCCCCCO/N=C/C(=O)N[C@@H](CCCNC(=N)N)C(=O)N2)CSC[C@@H](C(N)=O)NC(=O)[C@H](CCC(=O)O)NC(=O)[C@H](CCC(N)=O)NC(=O)[C@H](Cc2c[nH]c3ccccc23)NC(=O)[C@H](C(C)C)NC(=O)[C@H](CC(=O)O)NC1=O` [compound 3] (RCP[Nle]DVWQEC-NH2; linker N-2-10 via X3), the IC50 falls from > 500 µM to 0.053 µM. The second is the more potent here.

First: C[C@@H](O)[C@@H]1NC(=O)[C@H](CC(=O)O)NC(=O)[C@@H]2CCCN2C(=O)[C@H](Cc2ccc(O)cc2)NC(=O)[C@@H]2CSCc3cc(cc(c3)OCCCC/C=C/O/N=C/C(=O)N[C@@H](CC(N)=O)C(=O)N2)CSC[C@@H](C(N)=O)NC(=O)[C@H](Cc2cnc[nH]2)NC(=O)[C@H](Cc2ccc(O)cc2)NC1=O [compound 89, TSL6- SNCYPDTYHC] (NCYPDTYHC-NH2; linker N-2-9 via X8)
Second: CC(C)C[C@@H]1NC(=O)[C@H]([C@@H](C)O)NC(=O)[C@H](CC(=O)O)NC(=O)[C@H](CO)NC(=O)[C@H](CCCNC(=N)N)N(C)C(=O)CCSC[C@@H](C(=O)N[C@@H](Cc2c[nH]c3ccccc23)C(=O)N[C@@H](CCCCN)C(N)=O)NC1=O [compound 2]
The IC50 of the first is 2400-fold higher: 79.3 µM for the first, 0.033 µM for the second. The second is the more potent here.

`CC(C)C[C@@H]1NC(=O)[C@@H]2CCCN2C(=O)[C@@H]2CSCc3cc(cc(c3)OCCCCCCO/N=C/C(=O)N[C@@H](CCCCN)C(=O)N2)CSC[C@@H](C(N)=O)NC(=O)[C@H](CCC(=O)O)NC(=O)[C@H](Cc2ccc(O)cc2)NC(=O)[C@@H]2CCCN2C(=O)[C@H]([C@@H](C)O)NC(=O)[C@H](CC(=O)O)NC1=O` [compound 22, TSL6- SKCPLDTPYEC] (KCPLDTPYEC-NH2; linker N-2-10 via X3) was tested, and the IC50 was 0.495 µM and 0.94 µM.

same assay, conditions: competition ELISA, 4 μg/mL α4β7 coated, MAdCAM and peptide mixture, 28° C.; read-out: IC50

First: CCCC[C@@H]1NC(=O)[C@H](CO)NC(=O)[C@H](CCCNC(=N)N)NC(=O)[C@@H]2CSCC(=O)N[C@@H](CCCNC(=N)N)C(=O)N[C@@H](CSSC[C@@H](C(=O)N[C@@H](Cc3c[nH]c4ccccc34)C(=O)N[C@@H](CCC(N)=O)C(N)=O)NC(=O)[C@H]([C@@H](C)CC)NC(=O)[C@H](CC(=O)O)NC1=O)C(=O)N[C@@H](CO)C(=O)N[C@@H](CCCC)C(=O)N[C@@H](CC(=O)O)C(=O)N[C@@H]([C@@H](C)CC)C(=O)N2 [SEQ ID NO: 76] ({CH2CO}-RCS[Nle]DICRS[Nle]DICWQ-NH2; disulfide 2-13; thioether N-7)
Second: CC[C@H](C)[C@@H]1NC(=O)[C@H](CC(=O)O)NC(=O)[C@H](CC(C)C)NC(=O)[C@H](CCCCN)NC(=O)[C@@H]2CSCc3cc(cc(c3)OCCCCCCON=CC(=O)N[C@@H](Cc3c[nH]cn3)C(=O)N2)CSC[C@@H](C(=O)O)NC(=O)[C@H](C(C)C)NC(=O)[C@H](Cc2c[nH]c3ccccc23)NC1=O [SEQ ID NO: 73] (HCKLDIWVC-OH; linker N-2-9 via X1)
The IC50 of the first is lower: 263 µM for the first, > 500 µM for the second. The first is the more potent here.
